From patent publication US11370801B2, “Pyrrolobenzodiazepine conjugates” (priority 2017, dated 2022)

Assays:
NCI-N87 = test: Therapeutic index: MTD in rat / MED in mouse efficacy model; type: in vivo; conditions: ADC of the drug linker
Method: The therapeutic index of each ADC/drug linker was calculated using the following equation: TI=MTD in rat (mg/kg)/MED in mouse efficacy model (mg/kg)

[1] = in vitro cytotoxicity, picomolar region; cited from earlier work

| Structure (SMILES) | NCI-N87 MED (NCI-N87) | cytotoxic potency relative to DSB-120 [1] |
| --- | --- | --- |
| COc1cc2c(cc1OCCCOc1cc3c(cc1OC)C(=O)N1CCC[C@H]1[C@H](O)N3C(=O)OCc1ccc(NC(=O)[C@H](C)NC(=O)[C@@H](NC(=O)CCOCCOCCOCCOCCOCCOCCOCCOCCNC(=O)CCN3C(=O)C=CC3=O)C(C)C)cc1)N=C[C@@H]1CCCN1C2=O [Compound 1, 4-((2S,5S)-37-(2,5-dioxo-2,5-dihydro-1H-pyrrol-1-yl)-5-isopropyl-2-methyl-4,7,35-trioxo-10,13,16,19,22,25,28,31-octaoxa-3,6,34-triazaheptatriacontanamido)benzyl(11S,11aS)-11-hydroxy-7-methoxy-8-(3-(((S)-7-methoxy-5-oxo-2,3,5,11a-tetrahydro-1H-pyrrolo[2,1-c][1,4]benzodiazepin-8-yl)oxy)propoxy)-5-oxo-2,3,11,11a-tetrahydro-1H-pyrrolo[2,1-c][1,4]benzodiazepine-10(5H)-carboxylate] | 6 mg/kg |  |
| COc1cc2c(cc1OCCCOc1cc3c(cc1OC)C(=O)N1CCC[C@H]1[C@H](O)N3C(=O)OCc1ccc(NC(=O)[C@H](C)NC(=O)[C@@H](NC(=O)CCOCCOCCOCCOCCOCCOCCOCCOCCNC(=O)CCN3C(=O)C=CC3=O)C(C)C)cc1)N=C[C@@H]1CCCN1C2=O [Compound 2, 4-((2S,5S)-37-(2,5-dioxo-2,5-dihydro-1H-pyrrol-1-yl)-5-isopropyl-2-methyl-4,7,35-trioxo-10,13,16,19,22,25,28,31-octaoxa-3,6,34-triazaheptatriacontanamido)benzyl(11S,11aS)-11-hydroxy-7-methoxy-8-(3-(((S)-7-methoxy-5-oxo-2,3,5,11a-tetrahydro-1H-pyrrolo[2,1-c][1,4]benzodiazepin-8-yl)oxy)propoxy)-5-oxo-2,3,11,11a-tetrahydro-1H-pyrrolo[2,1-c][1,4]benzodiazepine-10(5H)-carboxylate] | 2 mg/kg |  |
| COc1cc2c(cc1OCc1cccc(COc3cc4c(cc3OC)C(=O)N3CCC[C@H]3[C@H](O)N4C(=O)OCc3ccc(NC(=O)[C@H](C)NC(=O)[C@@H](NC(=O)CCOCCOCCOCCOCCOCCOCCOCCOCCNC(=O)CCN4C(=O)C=CC4=O)C(C)C)cc3)c1)N=C[C@@H]1CCCN1C2=O [Compound 3, 4-((2S,5S)-37-(2,5-dioxo-2,5-dihydro-1H-pyrrol-1-yl)-5-isopropyl-2-methyl-4,7,35-trioxo-10,13,16,19,22,25,28,31-octaoxa-3,6,34-triazaheptatriacontanamido)benzyl (11S,11aS)-11-hydroxy-7-methoxy-8-((3-((((S)-7-methoxy-5-oxo-2,3,5,11a-tetrahydro-1H-benzo[e]pyrrolo[1,2-a][1,4]diazepin-8-yl)oxy)methyl)benzyl)oxy)-5-oxo-2,3,11,11a-tetrahydro-1H-benzo[e]pyrrolo[1,2-a][1,4]diazepine-10(5H)-carboxylate] | 1 mg/kg |  |
| C=C1C[C@H]2C=Nc3cc(OCCCOc4cc5c(cc4OC)C(=O)N4CC(=C)C[C@H]4C=N5)c(OC)cc3C(=O)N2C1 [SG2000] |  | ~9000 fold |
